Assay results taken from US8435978B2, “Substituted sulfonamide compounds” (Gruenenthal GmbH, priority 2006, dated 2013).

Tests used:
[1] = biological target: T1, human B1R receptor (Homo sapiens, UniProt P46663); assay: Functional study on the bradykinin receptor 1 (B1R), FLIPR Ca2+ assay, hB1R cells; format: cell-based; settings: CHO-K1, test substance 10 μM, agonist Lys-Des-Arg9-bradykinin 0.5 nM, % inhibition compared with the maximum achievable inhibition, read-out: B1R Antagonism, human [10 μM] % Inhibition
T1 construct: host or cells: CHO K1 cells (Chinese hamster ovary), stably transfected
T1 sequence (P46663 1-353): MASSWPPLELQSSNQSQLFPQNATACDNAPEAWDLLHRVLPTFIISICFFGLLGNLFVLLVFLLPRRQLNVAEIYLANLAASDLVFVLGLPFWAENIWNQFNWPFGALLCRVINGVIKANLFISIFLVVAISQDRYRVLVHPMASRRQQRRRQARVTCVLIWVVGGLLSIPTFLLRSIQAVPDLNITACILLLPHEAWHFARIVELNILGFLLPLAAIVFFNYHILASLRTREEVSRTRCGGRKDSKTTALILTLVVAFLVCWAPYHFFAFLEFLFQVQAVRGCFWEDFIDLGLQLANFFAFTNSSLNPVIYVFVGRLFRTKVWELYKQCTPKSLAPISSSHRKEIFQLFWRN
In short: (§1)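 CHO K1 cells stably expressing human or rat B1R, Fluo-4-loaded; test compound 10 μM added first (activation % vs agonist), then after 10 min 0.5 nM Lys-Des-Arg9-bradykinin (human) or 100 nM Des-Arg9-bradykinin (rat). Ca2+ peak fluorescence by FLIPR; % inhibition relative to maximum achievable inhibition.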

[2] = biological target: T2, B1R receptor of the rat (Rattus norvegicus, UniProt P97583); assay: Functional study on the bradykinin receptor 1 (B1R), FLIPR Ca2+ assay, rB1R cells; format: cell-based; settings: CHO-K1, test substance 10 μM, agonist Des-Arg9-bradykinin 100 nM, % inhibition compared with the maximum achievable inhibition, read-out: B1R Antagonism, rat [10 μM] % Inhibition
T2 construct: host or cells: CHO K1 cells (Chinese hamster ovary), stably transfected
T2 sequence (P97583 1-337): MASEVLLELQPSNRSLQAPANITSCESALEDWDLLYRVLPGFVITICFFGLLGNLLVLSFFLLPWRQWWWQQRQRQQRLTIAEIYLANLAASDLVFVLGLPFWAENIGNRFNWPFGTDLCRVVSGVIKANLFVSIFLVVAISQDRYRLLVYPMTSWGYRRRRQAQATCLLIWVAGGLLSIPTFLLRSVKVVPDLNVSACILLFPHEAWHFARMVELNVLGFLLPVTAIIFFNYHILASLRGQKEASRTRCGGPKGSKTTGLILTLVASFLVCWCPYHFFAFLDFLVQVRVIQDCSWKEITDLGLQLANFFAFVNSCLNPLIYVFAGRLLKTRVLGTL
In short: as §1

inhibition at 10 µM [1]	inhibition at 10 µM [2]	Compound
102%	99.7%	Cc1cc(C)nc(CC2CCCN2C(=O)COCC2CCCCN2S(=O)(=O)c2c(Cl)cccc2Cl)c1 (stereo not shown) [Example 457, 2-((1-(2,6-dichlorophenylsulfonyl)piperidin-2-yl)methoxy)-1-(2-((4,6-dimethylpyridin-2-yl)methyl)pyrrolidin-1-yl)ethanone]
103%	100%	Cc1cccc(CC2CCCN2C(=O)COCC2CCCCN2S(=O)(=O)c2c(Cl)cccc2Cl)n1 (stereo not shown) [Example 458, 2-((1-(2,6-dichlorophenylsulfonyl)piperidin-2-yl)methoxy)-1-(2-((6-methylpyridin-2-yl)methyl)pyrrolidin-1-yl)ethanone]
57.1%	102%	O=C(COCC1CCCCN1S(=O)(=O)c1c(Cl)cc(Cl)cc1Cl)NCCN1CCCC1 (stereo not shown) [Example 459, N-(2-(pyrrolidin-1-yl)ethyl)-2-((1-(2,4,6-trichlorophenylsulfonyl)piperidin-2-yl)methoxy)acetamide]
96.6%	101%	COc1cc(C)c(S(=O)(=O)N2CCCC2COCC(=O)N2CCN(Cc3ccccc3)CC2)c(C)c1 (stereo not shown) [Example 460, 1-(4-benzylpiperazin-1-yl)-2-((1-(4-methoxy-2,6-dimethylphenylsulfonyl)pyrrolidin-2-yl)methoxy)ethanone]
101%	99.1%	COc1cc(C)c(S(=O)(=O)N2CCCC2COCC(=O)N2CCN(c3ccccc3)CC2)c(C)c1 (stereo not shown) [Example 461, 2-((1-(4-methoxy-2,6-dimethylphenylsulfonyl)pyrrolidin-2-yl)methoxy)-1-(4-phenylpiperazin-1-yl)ethanone]
101%	98.2%	COc1cc(C)c(S(=O)(=O)N2CCCC2COCC(=O)N2CCN(Cc3ccc4c(c3)OCO4)CC2)c(C)c1 (stereo not shown) [Example 462, 1-(4-(benzo[d][1,3]dioxol-5-ylmethyl)piperazin-1-yl)-2-((1-(4-methoxy-2,6-dimethylphenylsulfonyl)pyrrolidin-2-yl)methoxy)ethanone]
97.4%	101%	COc1cc(C)c(S(=O)(=O)N2CCCC2COCC(=O)N(Cc2ccccc2)c2cc(C)ccn2)c(C)c1 (stereo not shown) [Example 463, N-benzyl-2-((1-(4-methoxy-2,6-dimethylphenylsulfonyl)pyrrolidin-2-yl)methoxy)-N-(4-methylpyridin-2-yl)acetamide]
56.6%	102%	COc1cc(C)c(S(=O)(=O)N2CCCC2COCC(=O)N(Cc2ccccc2)c2cccc(C)n2)c(C)c1 (stereo not shown) [Example 464, N-benzyl-2-((1-(4-methoxy-2,6-dimethylphenylsulfonyl)pyrrolidin-2-yl)methoxy)-N-(6-methylpyridin-2-yl)acetamide]
102%	98.8%	COc1cc(C)c(S(=O)(=O)N2CCCC2COCC(=O)N2CCN(c3cccc(C(F)(F)F)c3)CC2)c(C)c1 (stereo not shown) [Example 465, 2-((1-(4-methoxy-2,6-dimethylphenylsulfonyl)pyrrolidin-2-yl)methoxy)-1-(4-(3-(trifluoromethyl)phenyl)piperazin-1-yl)ethanone]
92.5%	99.7%	CCN(Cc1ccncc1)C(=O)COCC1CCCN1S(=O)(=O)c1c(C)cc(OC)cc1C (stereo not shown) [Example 466, N-ethyl-2-((1-(4-methoxy-2,6-dimethylphenylsulfonyl)pyrrolidin-2-yl)methoxy)-N-(pyridin-4-ylmethyl)acetamide]
101%	101%	COc1cc(C)c(S(=O)(=O)N2CCCC2COCC(=O)N2CCCN(C)CC2)c(C)c1 (stereo not shown) [Example 467, 2-((1-(4-methoxy-2,6-dimethylphenylsulfonyl)pyrrolidin-2-yl)methoxy)-1-(4-methyl-1,4-diazepan-1-yl)ethanone]
84.5%	101%	COc1cc(C)c(S(=O)(=O)N2CCCC2COCC(=O)N2CCN(c3ccc(C(F)(F)F)cn3)CC2)c(C)c1 (stereo not shown) [Example 468, 2-((1-(4-methoxy-2,6-dimethylphenylsulfonyl)pyrrolidin-2-yl)methoxy)-1-(4-(5-(trifluoromethyl)pyridin-2-yl)piperazin-1-yl)ethanone]
92.3%	102%	COc1cc(C)c(S(=O)(=O)N2CCCC2COCC(=O)N2CCN(c3ncc(C(F)(F)F)cc3Cl)CC2)c(C)c1 (stereo not shown) [Example 469, 1-(4-(3-chloro-5-(trifluoromethyl)pyridin-2-yl)piperazin-1-yl)-2-((1-(4-methoxy-2,6-dimethylphenylsulfonyl)pyrrolidin-2-yl)methoxy)ethanone]
92.7%	98.1%	COc1cc(C)c(S(=O)(=O)N2CCCC2COCC(=O)Nc2ccc(CCc3nc4ccccc4n3C)cc2)c(C)c1 (stereo not shown) [Example 470, 2-((1-(4-methoxy-2,6-dimethylphenylsulfonyl)pyrrolidin-2-yl)methoxy)-N-(4-(2-(1-methyl-1H-benzo[d]imidazol-2-yl)ethyl)phenyl)acetamide]
103%	98.8%	COc1cc(C)c(S(=O)(=O)N2CCCC2COCC(=O)Nc2cccc(CN3CCCCC3)c2)c(C)c1 (stereo not shown) [Example 471, 2-((1-(4-methoxy-2,6-dimethylphenylsulfonyl)pyrrolidin-2-yl)methoxy)-N-(3-(piperidin-1-ylmethyl)phenyl)acetamide]
94.6%	99.5%	COc1cc(C)c(S(=O)(=O)N2CCCC2COCC(=O)NCc2ccccc2N2CCN(C)CC2)c(C)c1 (stereo not shown) [Example 473, 2-((1-(4-methoxy-2,6-dimethylphenylsulfonyl)pyrrolidin-2-yl)methoxy)-N-(2-(4-methylpiperazin-1-yl)benzyl)acetamide]
96.7%	96.3%	COc1cc(C)c(S(=O)(=O)N2CCCC2COCC(=O)N2CCC(c3nc4cc(C)ccc4[nH]3)CC2)c(C)c1 (stereo not shown) [Example 474, 2-((1-(4-methoxy-2,6-dimethylphenylsulfonyl)pyrrolidin-2-yl)methoxy)-1-(4-(5-methyl-1H-benzo[d]imidazol-2-yl)piperidin-1-yl)ethanone]
90.4%	102%	COc1cc(C)c(S(=O)(=O)N2CCCC2COCC(=O)N2CCCCCC2c2ccc(N(C)C)cc2)c(C)c1 (stereo not shown) [Example 475, 1-(2-(4-(dimethylamino)phenyl)azepan-1-yl)-2-((1-(4-methoxy-2,6-dimethylphenylsulfonyl)pyrrolidin-2-yl)methoxy)ethanone]
90.1%	100%	COc1cc(C)c(S(=O)(=O)N2CCCC2COCC(=O)N2CC[C@@H](N(C)C)C2)c(C)c1 (stereo partly drawn) [Example 476, 1-((R)-3-(dimethylamino)pyrrolidin-1-yl)-2-((1-(4-methoxy-2,6-dimethylphenylsulfonyl)pyrrolidin-2-yl)methoxy)ethanone]
94.5%	98.8%	COc1cc(C)c(S(=O)(=O)N2CCCC2COCC(=O)NC2CCN(Cc3ccccc3)CC2)c(C)c1 (stereo not shown) [Example 477, N-(1-benzylpiperidin-4-yl)-2-((1-(4-methoxy-2,6-dimethylphenylsulfonyl)pyrrolidin-2-yl)methoxy)acetamide]
